In patent US20150105252A1, “SUBSTITUTED PYRAZOLES AS HERBICIDES” (E I DU PONT DE NEMOURS AND COMPANY, priority 2013, published 2015):

Legend:
Surinam grass = assay: Test C preemergence; format: in vivo, Brachiaria decumbens; conditions: for Plant response rating (scale of 0 to 100), Surinam Grass: Preemergence, 250 g ai/ha; for Surinam Grass plant response rating / Plant response rating, Surinam Grass: preemergence; for Plant response rating, Surinam Grass: 62 g ai/ha, scale 0 to 100, 0 = no effect, 100 = complete control
From the text: Seeds of plant species selected from blackgrass (Alopecurus myosuroides), ryegrass, Italian (Italian ryegrass, Lolium multiflorum), wheat (winter wheat, Triticum aestivum), galium (catchweed bedstraw, Galium aparine), corn (Zea mays), crabgrass, large (large crabgrass, Digitaria sanguinalis), foxtail, giant (giant foxtail, Setaria faberii), johnsongrass (Sorghum halepense), lambsquarters (Chenopodium album), morningglory (Ipomoea coccinea), nutsedge, yellow (yellow nutsedge, Cyperus esculentus), pigweed (redroot pigweed, Amaranthus retroflexus), ragweed (common ragweed, Ambrosia elation), soybean (Glycine max), barnyardgrass (Echinochloa crus-galli), oilseed rape (Brassica napus), waterhemp (common waterhemp, Amaranthus rudis), oat, wild (wild oat, Avena fatua), kochia (Kochia scoparia), Surinam grass (Brachiaria decumbens), foxtail, green (green foxtail, Setaria viridis), goosegrass (Eleusine indica), bromegrass, downy (downy bromegrass, Bromus tectorum), nightshade (eastern black nightshade, Solanum ptycanthum), cocklebur (common cocklebur, Xanthium strumarium), cupgrass, woolly (woolly cupgrass, Eriochloa villosa), bermudagrass (Cynodon dactylon), sunflower, (common oilseed sunflower, Helianthus annuus), Russian thistle (Salsola kali), and velvetleaf (Abutilon theophrasti) were planted into a blend of loam soil and sand and treated preemergence with test chemicals formulated in a non-phytotoxic solvent mixture which included a surfactant.
At the same time, plants selected from these crop and weed species and also chickweed (common chickweed, Stellaria media), canarygrass (littleseed canarygrass, Phalaris minor), and deadnettle (henbit deadnettle, Lamium amplexicaule), were planted in pots containing Redi-Earth® planting medium (Scotts Company, 14111 Scottslawn Road, Marysville, Ohio 43041) comprising spaghnum peat moss, vermiculite, wetting agent and starter nutrients and treated with postemergence applications of test chemicals formulated in the same manner. Plants ranged in height from 2 to 18 cm (1- to 4-leaf stage) for postemergence treatments. Treated plants and controls were maintained in a greenhouse for 13 to 15 days, after which time all species were compared to controls and visually evaluated. Plant response ratings, summarized in Table C, are based on a scale of 0 to 100 where 0 is no effect and 100 is complete control. A dash (-) response means no test result.

Russian thistle = assay: Test D preemergence; format: in vivo, Salsola kali; conditions: for Plant response rating, Russian Thistle: Preemergence, scale 0 to 100; for Plant response rating (scale 0 to 100), Russian Thistle: 16 g ai/ha, taken as preemergence
From the text: Seeds of plant species selected from bluegrass (annual bluegrass, Poa annua), blackgrass (Alopecurus myosuroides), canarygrass (littleseed canarygrass, Phalaris minor), chickweed (common chickweed, Stellaria media), galium (catchweed bedstraw, Galium aparine), bromegrass, downy (downy bromegrass, Bromus tectorum), field poppy (Papaver rhoeas), field violet (Viola arvensis), foxtail, green (green foxtail, Setaria viridis), deadnettle (henbit deadnettle, Lamium amplexicaule), ryegrass, Italian (Italian ryegrass, Lolium multiflorum), kochia (Kochia scoparia), lambsquarters (Chenopodium album), oilseed rape (Brassica napus), pigweed (redroot pigweed, Amaranthus retroflexus), chamomile (scentless chamomile, Matricaria inodora), speedwell (bird's-eye speedwell, Veronica persica), barley, spring (spring barley, Hordeum vulgare), wheat, spring (spring wheat, Triticum aestivum), buckwheat, wild (wild buckwheat, Polygonum convolvulus), mustard, wild (wild mustard, Sinapis arvensis), oat, wild (wild oat, Avena fatua), radish, wild (wild radish, Raphanus raphanistrum), windgrass (Apera spica-venti), Russian thistle (Salsola kali), barley, winter (winter barley, Hordeum vulgare), and wheat, winter (winter wheat, Triticum aestivum) were planted into a silt loam soil and treated preemergence with test chemicals formulated in a non-phytotoxic solvent mixture which included a surfactant.
At the same time, these species were planted in pots containing Redi-Earth® planting medium (Scotts Company, 14111 Scottslawn Road, Marysville, Ohio 43041) comprising spaghnum peat moss, vermiculite, wetting agent and starter nutrients and treated with postemergence applications of the test chemicals formulated in the same manner. Plants ranged in height from 2 to 18 cm (1- to 4-leaf stage). Treated plants and controls were maintained in a controlled growth environment for 14 to 21 days after which time all species were compared to controls and visually evaluated. Plant response ratings, summarized in Table D, are based on a scale of 0 to 100 where 0 is no effect and 100 is complete control. A dash (-) response means no test result.

giant foxtail = assay: Test F preemergence; format: in vivo, Setaria faberii
From the text: Seeds of plant species selected from corn (Zea mays), soybean (Glycine max), velvetleaf (Abutilon theophrasti), lambsquarters (Chenopodium album), wild poinsettia (Euphorbia heterophylla), pigweed, palmer (palmer pigweed, Amaranthus palmeri), common waterhemp (Amaranthus rudis), surinam grass (Brachiaria decumbens), large crabgrass (Digitaria sanguinalis), crabgrass, Brazil (Brazilian crabgrass, Digitaria horizontalis), fall panicum (Panicum dichotomiflorum), giant foxtail (Setaria faberii), green foxtail (Setaria viridis), goosegrass (Eleusine indica), johnsongrass (Sorghum halepense), common ragweed (Ambrosia elation), barnyardgrass (Echinochloa crus-galli), southern sandbur (Cenchrus echinatus), arrowleaf sida (Sida rhombifolia), Italian ryegrass (Lolium multiflorum), dayflower, VA (Virginia (VA) dayflower, Commelina virginica), field bindweed (Convolvulus arvensis), cocklebur (common cocklebur, Xanthium strumarium), morningglory (Ipomoea coccinea), nightshade (eastern black nightshade, Solanum ptycanthum), kochia (Kochia scoparia), yellow nutsedge (Cyperus esculentus), and hairy beggarticks (Bidens pilosa), were planted into a silt loam soil and treated preemergence with test chemicals formulated in a non-phytotoxic solvent mixture which included a surfactant.
At the same time, plants from these crop and weed species and also horseweed (Canada horseweed, Conyza canadensis), smartweed (ladysthumb smartweed, Polygonum persicaria), waterhemp_RES1, (ALS & Triazine resistant common waterhemp, Amaranthus rudis), and waterhemp_RES2, (ALS & HPPD resistant common waterhemp, Amaranthus rudis) were treated with postemergence applications of test chemicals formulated in the same manner. Plants ranged in height from 2 to 18 cm for postemergence treatments (1- to 4-leaf stage). Treated plants and controls were maintained in a greenhouse for 14 to 21 days, after which time all species were compared to controls and visually evaluated. Plant response ratings, summarized in Table F, are based on a scale of 0 to 100 where 0 is no effect and 100 is complete control. A dash (-) response means no test result.

[1] = 31 g ai/ha, scale 0 to 100 (0 no effect, 100 complete control), 13 to 15 days
[2] = 125 g ai/ha, scale 0 to 100, 0 is no effect, 100 is complete control
[3] = Preemergence, 62 g ai/ha, scale 0 to 100
[4] = Preemergence, 125 g ai/ha, scale 0 to 100
[5] = Preemergence, 250 g ai/ha, scale 0 to 100
[6] = preemergence, 16 g ai/ha, scale 0 to 100, 100 is complete control

| SMILES | Plant response rating (scale of 0 to 100), Surinam Grass (Surinam grass) | Surinam Grass plant response rating (Surinam grass; [1]) | Plant response rating, Surinam Grass (Surinam grass; 13 to 15 days) | Surinam Grass plant response rating (Surinam grass; [2]) | Plant response rating, Russian Thistle (Russian thistle; 31 g ai/ha) | Plant response rating, Russian Thistle (Russian thistle; 62 g ai/ha) | Plant response rating, Russian Thistle (Russian thistle; 125 g ai/ha) | Plant response rating, Giant Foxtail (giant foxtail; [3]) | Plant response rating, Giant Foxtail (giant foxtail; [4]) | Plant response rating, Giant Foxtail (giant foxtail; [5]) | Plant response rating, Giant Foxtail (giant foxtail; [6]) | Plant response rating, Giant Foxtail (giant foxtail; Preemergence, 31 g ai/ha, scale 0 to 100) | Plant response rating, Giant Foxtail (giant foxtail; preemergence, 8 g ai/ha, scale 0 to 100, 100 is complete control) | Plant response rating (scale 0 to 100), Russian Thistle (Russian thistle) | Plant response rating, Russian Thistle (Russian thistle; 250 g ai/ha) |
| --- | --- | --- | --- | --- | --- | --- | --- | --- | --- | --- | --- | --- | --- | --- | --- |
| CCONC(=O)c1cc(CC)n(Cc2cccc(OC(F)(F)F)c2)n1 [Compound 72] | 75 | 10 | 15 | 65 |  |  |  |  |  |  |  |  |  |  |  |
| Cc1cc(C(=O)NCC(F)(F)F)nn1Cc1ccnc(C(F)(F)F)c1 [Compound 74] | 100 | 15 | 50 | 85 | 70 | 85 | 95 |  |  |  |  |  |  |  |  |
| CCCc1cc(C(=O)NC(C)C)nn1Cc1cc(C(F)(F)F)nn1C [Compound 201] |  |  |  |  |  |  |  | 75 | 75 | 100 | 0 |  |  |  |  |
| CCc1cc(-c2ccc(C(F)(F)F)cc2)nn1Cc1ccnc(C(F)(F)F)c1 [Compound 110] |  |  |  |  |  |  |  | 95 | 98 |  | 40 | 70 | 25 |  |  |
| CCc1cc(C(=O)NC2CC2)nn1Cc1ccnc(C(F)(F)F)c1 [Compound 76] |  |  |  |  | 65 | 70 | 80 |  |  |  |  |  |  | 50 | 95 |
| CCc1cc(C(=O)NCC(F)(F)F)nn1Cc1ccnc(Br)c1 [Compound 224] |  |  |  |  |  |  |  | 40 | 75 | 98 |  |  |  |  |  |
| CCc1cc(C(=O)NOC(C)C)nn1Cc1cccc(OC(F)(F)F)c1 [Compound 70] | 85 | 5 | 25 | 65 | 0 | 90 | 90 |  |  |  |  |  |  | 0 | 100 |
